Measured values reported in patent US4395405A, “Alkyl-ketohexopyranoside derivatives and method of use” (Hisamitsu Pharmaceutical Co., Inc., priority 1979, dated 1983).

Columns and labels:
[1] = system: IgE antibodies; test: Formation of homocytotropic antibodies in rats, PCA (passive cutaneous anaphylaxis) reaction; type: in vivo, rats of wistar strain
Procedure: (§1) Effects on the formation of homocytotropic antibodies in rats
(§2) An experiment was carried out in accordance with the Tada and Okumura's method (J. Immunol., Vol. 106, p 1002, 1971).
(§3) Groups each consisting of 8-9 rats of wistar strain were used in this experiment.
(§4) As shown in Tables 2-5, to the four legs of the rats were injected 1 mg of dinitrophenylated extract of ascaris suum (DNP-As) as protein and 10^10 cells of vaccinum pertussis (B. Pertussis) for sensitization, after which the compounds of this invention were administered to the injected rats for 5 days. Eight to nine days after the sensitization, bloodletting was effected on these rats to collect their serum for estimating the amount of antibodies formed using passive cutaneous anaphylaxis (PCA) reactions and phytohemaglutinin (PHA) reactions.
(1) Estimation of the amount of antibodies by PCA reaction:
The collected serum was diluted in various concentrations and intradermally injected to other rats. Forty-eight (48) hours after the injection, 2 mg of DNP-As as protein and 0.5 ml of a 1% Evans Blue were intravenously injected into these rats to determine the dilution of the serum which induced the minimum extravasted dye. It should be noted that the symbols "*" and "**" in the following Tables indicate significant differences at risks of 5% and 1%, respectively. […]

[2] = system: IgG and IgM; test: Amount of antibodies formed in rats, PHA (phytohemaglutinin) reaction; type: in vivo, rats of wistar strain
Procedure: as §1, §2, §3, §4
(2) Estimation of the amount of antibodies by PHA reaction:
The collected serum was diluted in various concentrations and incubated with sheep red blood cells coupled with DNP-As using bis-diazoated benzydine to determine the dilution of the serum which induced the minimum hemaglutination. […]

[3] = system: IgE antibodies; test: Formation of homocytotropic antibodies in mice, PCA reaction; type: in vivo, mice (BALB/c strain), female; conditions: 100 mg/Kg/day for 5 days
Procedure: The collected serum was diluted in various concentrations and intradermally injected to other rats. Forty-eight (48) hours after the injection, 2 mg of DNP-As as protein and 0.5 ml of a 1% Evans Blue were intravenously injected into these rats to determine the dilution of the serum which induced the minimum extravasted dye. It should be noted that the symbols "*" and "**" in the following Tables indicate significant differences at risks of 5% and 1%, respectively.
(§5) Effects on the formation of homocytotropic antibodies in mice
(§6) Groups each consisting of 5 female mice (BALB/c strain) were used in this experiment. The mice were sensitized with 10 μg of DNP-As as protein and 3 mg of Al(OH)3, after which the test compound was administered to the sensitized mice for 5 days (at a dose of 100 mg/Kg/day). After the sensitization, a sample of serum was collected from the mice and treated in the same manner as in Experiment 1 to determine the amount of antibodies formed. […]

[4] = system: IgG and IgM; test: Amount of antibodies formed in mice, PHA reaction; type: in vivo, mice (BALB/c strain), female; conditions: 100 mg/Kg/day for 5 days
Procedure: The collected serum was diluted in various concentrations and incubated with sheep red blood cells coupled with DNP-As using bis-diazoated benzydine to determine the dilution of the serum which induced the minimum hemaglutination.
as §5, §6

[5] = Acute poisoning test on rats; conditions: rat, in vivo, three weeks
Procedure: (§7) Each of the test compounds was suspended in a physiological solution of sodium chloride containing 0.5% of tragacanth gum to obtain a test suspension. The test suspensions so obtained were administered to rats and mice in various ways. LD50 was calculated from test animals which died in three weeks after the start of the test.

[6] = Acute poisoning test on mice; conditions: mouse, in vivo, three weeks
Procedure: as §7

[7] = Table 2, abdominal and oral administration, 5 days, serum 8 days after sensitization, control 237 (169-337)
[8] = Table 2, abdominal and oral administration, 5 days, serum 9 days after sensitization, control 169 (119-223)
[9] = Table 4, oral administration, serum 8 days after the sensitization, control 320 (270-370)
[10] = Table 6, oral, serum 10 days after sensitization, control 256 ± 128
[11] = Table 6, oral, serum 21 days after sensitization, control 1024 ± 0
[12] = Table 6, oral, serum 30 days after sensitization, control 299 ± 43
[13] = Table 11, hypodermic, serum 9 days after, control 380.2 (269.2-537.0), 100 mg/kg/day
[14] = Table 9, hypodermic, serum 37 days after, control 3467.37 (2013.72-3767.04)
[15] = Table 3 left half, hypodermic administration, serum 8 days after sensitization, control 144.5 (117.5-177.8)
[16] = Table 5 left half, hypodermic administration, serum 8 days after sensitization, control 1318.3 (933.3-1862.1)
[17] = Table 11, hypodermic, serum 9 days after, control 380.2 (269.2-537.0)
[18] = Table 11, hypodermic, serum 10 days after, control 109.7 (95.5-125.9)
[19] = Table 11, hypodermic, serum 37 days after, control 1071.5 (871.0-1318.3)
[20] = Table 7, oral, serum 10 days after sensitization, control 537.0 (436.5-660.7)
[21] = Table 8, hypodermic, serum 9 days after, control 708.0 (575.4-871.0)
[22] = Table 8, hypodermic, serum 10 days after, control 537.0 (380.2-758.6)
[23] = Table 8, hypodermic, serum 37 days after, control 2818.4 (1862.1-4265.8)
[24] = Table 10, oral, serum 10 days after, control 125.9 (95.5-166.0)
[25] = Table 3 right half, hypodermic administration, serum 8 days after sensitization, control 269.2 (218.8-331.1)
[26] = Table 5 right half, hypodermic administration, serum 8 days after sensitization, control 3235.9 (2454.7-4265.8)

Structure (SMILES)	PCA of rat: dilution of the serum which induced the minimum extravasted dye [1, 7]	PCA of rat: dilution of the serum which induced the minimum extravasted dye [1, 8]	PHA of rat: dilution of the serum which induced the minimum hemaglutination [2, 9]	PCA of mice (serum dilution) [3, 10]	PCA of mice (serum dilution) [3, 11]	PCA of mice (serum dilution) [3, 12]	PHA of mice (serum dilution) [4, 17]	PHA of mice (serum dilution) [4, 18]	PHA of mice (serum dilution) [4, 19]	PCA of mice (serum dilution) [3, 20]	PHA of mice (serum dilution) [4, 24]	also measured
CCCCOC1(CO)OCC(O)C(O)C1O [Compound No. 2, n-butyl-β-D-fructopyranoside]	147	84.4	600									
CC(C)COC1(CO)OCC(O)C(O)C1O [Compound No. 3, isobutyl-β-D-fructopyranoside]	73.5	97.0	630	118 ± 37	563 ± 125	256 ± 129						
CCCCCOC1(CO)OCC(O)C(O)C1O [Compound No. 4, n-pentyl-β-D-fructopyranoside]	52.0	51.9	3250	88 ± 24	328 ± 108	272 ± 80						PHA of mice (serum dilution) [4, 13]: 309.0 (251.2-380.2); LD50 at 504 h ([5]; ip, abdominally, female): > 2780 mg/kg; LD50 at 504 h ([5]; ip, abdominally, male): > 2780 mg/kg; LD50 at 504 h ([5]; iv, intravenously, female): 660 mg/kg; LD50 at 504 h ([5]; iv, intravenously, male): 670 mg/kg; LD50 at 504 h ([5]; po, orally, female): > 4000 mg/kg; LD50 at 504 h ([5]; po, orally, male): > 4000 mg/kg; LD50 at 504 h ([5]; sc, hypodermically, female): 1300 mg/kg; LD50 at 504 h ([5]; sc, hypodermically, male): 1500 mg/kg; PCA of mice (serum dilution) [3, 14]: 177.83; PCA of rat: dilution of the serum which induced the minimum extravasted dye [1, 15]: 102.4; PHA of rat: dilution of the serum which induced the minimum hemaglutination [2, 16]: 2454.7; LD50 at 504 h ([6]; ip, abdominally, female): 2360 mg/kg; LD50 at 504 h ([6]; ip, abdominally, male): 2590 mg/kg; LD50 at 504 h ([6]; iv, intravenously, female): 930 mg/kg; LD50 at 504 h ([6]; iv, intravenously, male): 760 mg/kg; LD50 at 504 h ([6]; po, orally, female): 3790 mg/kg; LD50 at 504 h ([6]; po, orally, male): 3800 mg/kg; LD50 at 504 h ([6]; sc, hypodermically, female): 1080 mg/kg; LD50 at 504 h ([6]; sc, hypodermically, male): 1020 mg/kg
CC(C)CCOC1(CO)OCC(O)C(O)C1O [Compound No. 5, isopentyl-β-D-fructopyranoside]		90.5		316 ± 86	480 ± 142	448 ± 64						
CCCCCCOC1(CO)OCC(O)C(O)C1O [Compound No. 6, n-hexyl-β-D-fructopyranoside]	97.0	147	810	320	288	240						
CCCOC1(CO)OCC(O)C(O)C1O [Compound No. 7, n-propyl-α-L-sorbopyranoside]							309.0 (251.2-380.2)	166.0 (134.9-204.2)	1000 (758.6-1318.3)	218.8		LD50 at 504 h ([5]; ip, abdominally, male): > 5000 mg/kg; LD50 at 504 h ([5]; iv, intravenously, male): > 2000 mg/kg; LD50 at 504 h ([5]; po, orally, male): > 5000 mg/kg; LD50 at 504 h ([5]; sc, hypodermically, male): > 5000 mg/kg; PCA of mice (serum dilution) [3, 21]: 660.7; PCA of mice (serum dilution) [3, 22]: 407.4; PCA of mice (serum dilution) [3, 23]: 1995.3; PCA of rat: dilution of the serum which induced the minimum extravasted dye [1, 15]: 67.6; PHA of rat: dilution of the serum which induced the minimum hemaglutination [2, 16]: 5248.1; LD50 at 504 h ([6]; ip, abdominally, male): > 1000 mg/kg; LD50 at 504 h ([6]; iv, intravenously, male): > 2000 mg/kg; LD50 at 504 h ([6]; po, orally, male): > 5000 mg/kg; LD50 at 504 h ([6]; sc, hypodermically, male): > 5000 mg/kg
CCCCOC1(CO)OCC(O)C(O)C1O [Compound No. 9, n-butyl-α-L-sorbopyranoside]							288.4 (245.5-354.8)	102.3 (89.1-117.5)	871.0 (660.7-1148.2)	380.2	177.8	PCA of mice (serum dilution) [3, 21]: 708.0; PCA of mice (serum dilution) [3, 22]: 218.8; PCA of mice (serum dilution) [3, 23]: 1513.6; PCA of mice (serum dilution) [3, 14]: 251.19; PCA of rat: dilution of the serum which induced the minimum extravasted dye [1, 15]: 47.9; PHA of rat: dilution of the serum which induced the minimum hemaglutination [2, 16]: 5248.1
CCCCCOC1(CO)OCC(O)C(O)C1O [Compound No. 11, n-pentyl-α-L-sorbopyranoside]								109.7 (83.2-144.5)	1621.8 (1318.3-1995.3)	501.2	177.8	PHA of mice (serum dilution) [4, 13]: 354.8 (288.4-457.1); PCA of mice (serum dilution) [3, 14]: 177.83; PCA of rat: dilution of the serum which induced the minimum extravasted dye [1, 25]: 154.9 (134.9-177.8); PHA of rat: dilution of the serum which induced the minimum hemaglutination [2, 26]: 3467.4 (2630.3-4570.8)
CC(C)CCOC1(CO)OCC(O)C(O)C1O [Compound No. 12, isopentyl-2-L-sorbopyranoside]							218.8 (109.7-436.5)	144.5 (125.9-166.0)	1230.3 (871.0-1737.8)	269.2	109.7	PCA of rat: dilution of the serum which induced the minimum extravasted dye [1, 25]: 234.4 (204.2-269.2); PHA of rat: dilution of the serum which induced the minimum hemaglutination [2, 26]: 6025.6 (4897.8-7413.1)
CCCCCCOC1(CO)OCC(O)C(O)C1O [Compound No. 13, n-hexyl-α-L-sorbopyranoside]							125.9 (83.2-190.6)	102.3 (89.1-117.5)	1148.2 (758.6-1737.8)		109.7	PCA of mice (serum dilution) [3, 21]: 380.2; PCA of mice (serum dilution) [3, 22]: 708.0; PCA of mice (serum dilution) [3, 23]: 3235.9; PHA of rat: dilution of the serum which induced the minimum hemaglutination [2, 26]: 4265.8 (2630.3-6918.3)
O=P1(N(CCCl)CCCl)NCCCO1 (stereo not shown) [Cyclophosphamide, reference compound]		16.0		214 ± 103	561 ± 71	368 ± 146						
